Results: ChEMBL document CHEMBL4359905, “Discovery, structural insight, and bioactivities of BY27 as a selective inhibitor of the second bromodomains of BET proteins” (Eur J Med Chem, 2019)

What was measured:
[1] = Toxicity in BALB/c nu/nu mouse xenografted with human MV4-11 cells assessed as decrease in body weight at 60 mg/kg, po via gavage once daily for 6 days and measured every 2 to 3 days relative to control; type: organism-based; set-up: scale not given: the % may be the effect or the level left; details: in vivo
MV4-11 [2] = assay: Antitumour activity against human MV4-11 cells xenografted in BALB/c nu/nu mouse assessed as tumour growth inhibition at 150 mg/kg, po via gavage administered once daily for 21 days and measured every 2 to 3 days by vernier caliper method relative to control; type: functional; details: MV4-11, po, read-out: GI
MV4-11 [3] = assay: Antitumour activity against human MV4-11 cells xenografted in BALB/c nu/nu mouse assessed as downregulation of c-Myc expression level in tumor tissue at 150 mg/kg, po administered via gavage as a single dose measured after 6 hrs by western blot analysis; type: functional; details: MV4-11, po
[4] = target: T1, Bromodomain testis-specific protein (Homo sapiens, UniProt Q58F21); assay: Binding affinity to human partial length BRDT bromodomain 2 isoform b (K250 to E382 residues) expressed in bacterial expression system by bromoscan assay
[5] = target: T2, Bromodomain-containing protein 3 (Homo sapiens, UniProt Q15059); assay: Binding affinity to human recombinant BRD3 BD1 (24 to 144 residues) by fluorescence polarization assay
Target sequence in this assay (Q15059 whole entry, the tested form may be a part, canonical isoform): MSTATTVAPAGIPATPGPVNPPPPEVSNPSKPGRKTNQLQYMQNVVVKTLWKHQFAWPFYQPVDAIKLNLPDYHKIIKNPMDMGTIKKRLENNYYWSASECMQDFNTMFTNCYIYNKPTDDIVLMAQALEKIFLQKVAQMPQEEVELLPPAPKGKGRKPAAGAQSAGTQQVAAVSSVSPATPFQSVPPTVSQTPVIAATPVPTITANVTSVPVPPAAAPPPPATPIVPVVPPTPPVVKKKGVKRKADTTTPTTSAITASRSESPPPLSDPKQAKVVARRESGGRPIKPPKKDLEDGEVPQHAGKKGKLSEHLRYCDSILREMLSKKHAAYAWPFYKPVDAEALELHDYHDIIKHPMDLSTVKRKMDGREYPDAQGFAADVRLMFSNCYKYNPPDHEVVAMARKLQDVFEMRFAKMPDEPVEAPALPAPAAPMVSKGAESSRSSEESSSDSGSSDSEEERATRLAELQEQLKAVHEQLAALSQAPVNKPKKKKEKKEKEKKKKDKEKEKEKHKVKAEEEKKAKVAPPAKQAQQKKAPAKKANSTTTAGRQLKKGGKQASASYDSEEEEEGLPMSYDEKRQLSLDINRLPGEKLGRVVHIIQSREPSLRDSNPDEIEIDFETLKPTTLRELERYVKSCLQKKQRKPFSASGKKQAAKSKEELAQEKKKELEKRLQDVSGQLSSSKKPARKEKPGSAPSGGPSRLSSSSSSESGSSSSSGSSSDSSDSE

[6] = target: T3, Bromodomain-containing protein 2 (Homo sapiens, UniProt P25440); assay: Binding affinity to human partial length BRD2 BD2 isoform 1 (E348 to D455 residues) expressed in bacterial expression system by bromoscan assay
Target sequence in this assay (P25440 whole entry, the tested form may be a part, canonical isoform): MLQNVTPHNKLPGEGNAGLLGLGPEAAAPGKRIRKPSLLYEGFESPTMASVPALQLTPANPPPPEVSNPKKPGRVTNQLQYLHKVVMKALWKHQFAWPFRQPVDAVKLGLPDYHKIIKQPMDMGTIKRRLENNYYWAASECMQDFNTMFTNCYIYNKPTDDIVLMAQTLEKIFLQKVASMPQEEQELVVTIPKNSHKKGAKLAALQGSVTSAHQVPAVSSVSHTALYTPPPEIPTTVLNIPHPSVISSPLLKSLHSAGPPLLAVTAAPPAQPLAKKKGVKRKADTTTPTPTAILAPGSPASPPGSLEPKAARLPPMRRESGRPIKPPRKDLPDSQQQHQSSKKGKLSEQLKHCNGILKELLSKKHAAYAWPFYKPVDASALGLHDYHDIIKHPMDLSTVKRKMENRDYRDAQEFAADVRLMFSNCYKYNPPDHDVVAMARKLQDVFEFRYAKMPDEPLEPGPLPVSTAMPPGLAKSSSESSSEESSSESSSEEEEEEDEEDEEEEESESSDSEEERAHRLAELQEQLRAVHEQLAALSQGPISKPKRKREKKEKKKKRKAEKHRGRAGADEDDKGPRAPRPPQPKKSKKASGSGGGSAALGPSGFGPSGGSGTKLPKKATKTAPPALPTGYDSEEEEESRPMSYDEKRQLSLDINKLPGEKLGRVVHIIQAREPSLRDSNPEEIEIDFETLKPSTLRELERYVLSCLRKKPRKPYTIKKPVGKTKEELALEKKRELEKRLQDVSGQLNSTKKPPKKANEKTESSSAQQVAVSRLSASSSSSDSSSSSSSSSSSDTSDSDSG

[7] = Half-life in ICR mouse at 5 mg/kg, iv measured upto 24 hrs by LC-MS/MS analysis; type: ADME, organism-based; details: in vivo
[8] = target: T3, Bromodomain-containing protein 2; assay: Selectivity ratio of Kd for human partial length BRD2 BD1 isoform 1 (K71 to N194 residues) expressed in bacterial expression system to Kd for human partial length BRD2 BD2 isoform 1 (E348 to D455 residues) expressed in bacterial expression system
Target sequence in this assay (P25440 whole entry, looked up, the tested form may be a part, canonical isoform): as the sequence (P25440 whole entry, the tested form may be a part, canonical isoform) above

[9] = target: T4, Bromodomain-containing protein 4 (Homo sapiens, UniProt O60885); assay: Binding affinity to human recombinant BRD4 BD2 (333 to 460 residues) by fluorescence polarization assay
[10] = target: T2, Bromodomain-containing protein 3; assay: Selectivity ratio of Kd for human partial length BRD3 BD1 (P24 to E144 residues) expressed in bacterial expression system to Kd for human partial length BRD3 BD2 (G306 to P416 residues) expressed in bacterial expression system
Target sequence in this assay (Q15059 2-726 limits assumed): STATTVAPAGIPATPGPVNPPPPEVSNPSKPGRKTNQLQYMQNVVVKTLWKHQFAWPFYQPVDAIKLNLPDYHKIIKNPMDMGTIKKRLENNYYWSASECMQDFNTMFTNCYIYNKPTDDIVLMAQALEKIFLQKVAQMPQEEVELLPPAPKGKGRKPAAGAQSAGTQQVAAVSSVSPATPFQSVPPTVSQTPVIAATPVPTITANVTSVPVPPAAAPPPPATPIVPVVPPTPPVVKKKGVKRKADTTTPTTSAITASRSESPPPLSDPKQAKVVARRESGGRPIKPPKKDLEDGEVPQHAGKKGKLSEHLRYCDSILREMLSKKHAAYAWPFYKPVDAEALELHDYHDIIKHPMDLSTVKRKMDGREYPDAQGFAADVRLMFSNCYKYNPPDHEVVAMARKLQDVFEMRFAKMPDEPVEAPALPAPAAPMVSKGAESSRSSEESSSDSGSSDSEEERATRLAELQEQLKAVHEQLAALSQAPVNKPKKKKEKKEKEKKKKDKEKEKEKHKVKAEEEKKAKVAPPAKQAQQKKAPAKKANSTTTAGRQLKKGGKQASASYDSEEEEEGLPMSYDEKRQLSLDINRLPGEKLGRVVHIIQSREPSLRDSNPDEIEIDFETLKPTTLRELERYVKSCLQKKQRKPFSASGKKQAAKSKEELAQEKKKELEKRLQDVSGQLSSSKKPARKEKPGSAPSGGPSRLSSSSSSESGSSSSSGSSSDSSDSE

[11] = target: T4, Bromodomain-containing protein 4; assay: Binding affinity to human partial length BRD4 BD2 isoform long (K333 to E460 residues) expressed in bacterial expression system by bromoscan assay
[12] = Toxicity in BALB/c nu/nu mouse xenografted with human MV4-11 cells assessed as decrease in body weight at 150 mg/kg, po via gavage once daily for 21 days and measured every 2 to 3 days relative to control; type: organism-based; set-up: scale not given: the % may be the effect or the level left; details: in vivo
MV4-11 [13] = assay: Antitumour activity against human MV4-11 cells xenografted in BALB/c nu/nu mouse assessed as tumour growth inhibition administered via oral gavage once daily for 21 days and measured every 2 to 3 days by vernier caliper method; type: functional, cell-based
[14] = target: T2, Bromodomain-containing protein 3; assay: Binding affinity to human recombinant BRD3 BD2 (306 to 417 residues) by fluorescence polarization assay
Target sequence in this assay (Q15059 whole entry, the tested form may be a part, canonical isoform): as the sequence (Q15059 whole entry, the tested form may be a part, canonical isoform) above

[15] = Volume of distribution at steady state in ICR mouse at 5 mg/kg, iv measured upto 24 hrs by LC-MS/MS analysis; type: ADME, organism-based; details: in vivo, read-out: Vdss
HepG2 [16] = assay: Downregulation of […] in human HepG2 cells after 4 hrs by qRT-PCR analysis; type: functional, cell-based
[17] = Clearance in ICR mouse at 5 mg/kg, iv measured upto 24 hrs by LC-MS/MS analysis; type: ADME, organism-based; details: in vivo
[18] = target: T3, Bromodomain-containing protein 2; assay: Binding affinity to human partial length BRD2 BD1 isoform 1 (K71 to N194 residues) expressed in bacterial expression system by bromoscan assay
Target sequence in this assay (P25440 whole entry, the tested form may be a part, canonical isoform): as the sequence (P25440 whole entry, the tested form may be a part, canonical isoform) above

MV4-11 [19] = assay: Antitumour activity against human MV4-11 cells xenografted in BALB/c nu/nu mouse assessed as upregulation of p21 expression level in tumor tissue at 150 mg/kg, po administered via gavage as a single dose measured after 6 hrs by western blot analysis; type: functional
[20] = target: T4, Bromodomain-containing protein 4; assay: Selectivity ratio of Kd for human partial length BRD4 BD1 isoform long (N44 to E168 residues) expressed in bacterial expression system to Kd for human partial length BRD4 BD2 isoform long (K333 to E460 residues) expressed in bacterial expression system
[21] = Cmax in ICR mouse at 15 mg/kg, po measured upto 24 hrs by LC-MS/MS analysis; type: ADME, organism-based; set-up: dose 15 mg/kg, route oral; details: in vivo
MV4-11 [22] = assay: Upregulation of p21 mRNA expression in human MV4-11 cells after 24 hrs by qRT-PCR analysis; type: functional, cell-based
[23] = Half-life in ICR mouse at 15 mg/kg, po measured upto 24 hrs by LC-MS/MS analysis; type: ADME, organism-based; details: in vivo
[24] = target: T4, Bromodomain-containing protein 4; assay: Binding affinity to human recombinant BRD4 BD1 (44 to 168 residues) by fluorescence polarization assay
MV4-11 [25] = assay: Antitumour activity against human MV4-11 cells xenografted in BALB/c nu/nu mouse assessed as downregulation of c-Myc expression level in tumor tissue at 150 mg/kg, po administered via gavage as a single dose measured after 24 hrs by western blot analysis; type: functional; details: MV4-11, po
[26] = Oral bioavailability in ICR mouse at 15 mg/kg measured upto 24 hrs by LC-MS/MS analysis; type: ADME, organism-based; details: in vivo
HepG2 [27] = assay: Downregulation of G6PC in human HepG2 cells after 4 hrs by qRT-PCR analysis; type: functional, cell-based
[28] = target: T2, Bromodomain-containing protein 3; assay: Binding affinity to human partial length BRD3 BD2 (G306 to P416 residues) expressed in bacterial expression system by bromoscan assay
Target sequence in this assay (Q15059 whole entry, the tested form may be a part, canonical isoform): as the sequence (Q15059 whole entry, the tested form may be a part, canonical isoform) above

MV4-11 [29] = assay: Downregulation of cMyc mRNA expression in human MV4-11 cells after 24 hrs by qRT-PCR analysis; type: functional, cell-based
[30] = target: T2, Bromodomain-containing protein 3; assay: Selectivity index, ratio of Ki for human recombinant BRD3 BD1 (24 to 144 residues) to Ki for human recombinant BRD3 BD2 (306 to 417 residues)
Target sequence in this assay (Q15059 2-726 limits assumed): as the sequence (Q15059 2-726 limits assumed) above

[31] = AUC (0 to t) in ICR mouse at 15 mg/kg, po measured upto 24 hrs by LC-MS/MS analysis; type: ADME, organism-based; set-up: time < 24 hr, dose 15 mg/kg, route oral; details: in vivo
MV4-11 [32] = assay: Antitumour activity against human MV4-11 cells xenografted in BALB/c nu/nu mouse assessed as tumour growth inhibition at 60 mg/kg, po via gavage administered once daily for 21 days and measured every 2 to 3 days by vernier caliper method relative to control; type: functional; details: MV4-11, po, read-out: GI
MV4-11 [33] = assay: Downregulation of p21 expression level in tumor tissue in BALB/c nu/nu mouse xenografted with human MV4-11 cells at 150 mg/kg, po administered via gavage as a single dose measured after 24 hrs by western blot analysis; type: functional; details: MV4-11, po
[34] = target: T3, Bromodomain-containing protein 2; assay: Binding affinity to human recombinant BRD2 BD2 (349 to 460 residues) by fluorescence polarization assay
Target sequence in this assay (P25440 whole entry, the tested form may be a part, canonical isoform): as the sequence (P25440 whole entry, the tested form may be a part, canonical isoform) above

[35] = AUC (0 to t) in ICR mouse at 5 mg/kg, iv measured upto 24 hrs by LC-MS/MS analysis; type: ADME, organism-based; set-up: dose 5 mg/kg, time < 24 hr, route intravenous; details: in vivo
[36] = target: T2, Bromodomain-containing protein 3; assay: Binding affinity to human partial length BRD3 BD1 (P24 to E144 residues) expressed in bacterial expression system by bromoscan assay
Target sequence in this assay (Q15059 whole entry, the tested form may be a part, canonical isoform): as the sequence (Q15059 whole entry, the tested form may be a part, canonical isoform) above

[37] = target: T1, Bromodomain testis-specific protein; assay: Selectivity ratio Kd for human partial length BRDT bromodomain 1 isoform b (N21 to E137 residues) expressed in bacterial expression system to Kd for human partial length BRDT bromodomain 2 isoform b (K250 to E382 residues) expressed in bacterial expression system
MV4-11 [38] = assay: Decrease in c-Myc protein expression in human MV4-11 cells incubated for 24 hrs by western blot analysis; type: functional, cell-based
HepG2 [39] = assay: Downregulation of ARID5B in human HepG2 cells after 4 hrs by qRT-PCR analysis; type: functional, cell-based
[40] = target: T4, Bromodomain-containing protein 4; assay: Binding affinity to human partial length BRD4 BD1 isoform long (N44 to E168 residues) expressed in bacterial expression system by bromoscan assay
[41] = Cmax in ICR mouse at 5 mg/kg, iv measured upto 24 hrs by LC-MS/MS analysis; type: ADME, organism-based; set-up: dose 5 mg/kg, route intravenous; details: in vivo
[42] = target: T3, Bromodomain-containing protein 2; assay: Binding affinity to human recombinant BRD2 BD1 (72 to 205 residues) by fluorescence polarization assay
Target sequence in this assay (P25440 whole entry, the tested form may be a part, canonical isoform): as the sequence (P25440 whole entry, the tested form may be a part, canonical isoform) above

MV4-11 [43] = assay: Increase in p21 protein expression in human MV4-11 cells incubated for 24 hrs by western blot analysis; type: functional, cell-based
[44] = target: T1, Bromodomain testis-specific protein; assay: Binding affinity to human partial length BRDT bromodomain 1 isoform b (N21 to E137 residues) expressed in bacterial expression system by bromoscan assay
MV4-11 [45] = assay: Antiproliferative activity against human MV4-11 cells assessed as cell growth inhibition after 4 days by CCK8 assay; type: functional, cell-based; details: MV4-11, 96 h
MV4-11 [46] = assay: Antitumour activity against human MV4-11 cells xenografted in BALB/c nu/nu mouse assessed as tumour growth inhibition at 100 mg/kg, po via gavage administered once daily for 21 days and measured every 2 to 3 days by vernier caliper method relative to control; type: functional; details: MV4-11, po, read-out: GI
MM1.S = assay: Antiproliferative activity against human MM1S cells assessed as cell growth inhibition after 4 days by CCK8 assay; type: functional, cell-based; details: 96 h

CCNC(=O)C[C@@H]1N=C(c2ccc(Cl)cc2)c2cc(OC)ccc2-n2c(C)nnc21 [MOLIBRESIB]
Activity [1]: 11%

Cc1nnc2n1-c1ccc(-c3cnn(C)c3)cc1[C@H](Nc1ccc(Cl)cc1)CC2
inhibition in vivo at 150 mg/kg (MV4-11 [2]): 67% | inhibition in vivo at 150 mg/kg (MV4-11 [3]): 30% | Kd [4]: 3 nM | Ki [5]: 77.9 nM | Kd [6]: 1.2 nM | half-life [7]: 34.8 min | Selectivity ratio [8]: 38 | Ki [9]: 7.3 nM | Selectivity ratio [10]: 5 | Kd [11]: 3.5 nM | Activity [12]: 7% | inhibition (MV4-11 [13]): Dose-dependent effect | Ki [14]: 5.3 nM | Vd [15]: 0.94 L/kg | inhibition (HepG2 [16]): Dose-dependent effect | clearance [17]: 25 mL/min/kg | Kd [18]: 45 nM | Activity (MV4-11 [19]): 46% | Selectivity ratio [20]: 7 | Cmax [21]: 2210 ng/mL | Activity (MV4-11 [22]): Dose-dependent effect | half-life [23]: 57 min | Ki [24]: 80 nM | inhibition in vivo at 150 mg/kg (MV4-11 [25]): 43% | bioavailability [26]: 59.1% | inhibition (HepG2 [27]): Dose-dependent effect | Kd [28]: 2.6 nM | inhibition (MV4-11 [29]): Dose-dependent effect | Ratio Ki [30]: 15 | AUC(0-t) at 24 h [31]: 5890 ng·h/mL | inhibition in vivo at 60 mg/kg (MV4-11 [32]): 47% | inhibition in vivo at 150 mg/kg (MV4-11 [33]): 18% | Ki [34]: 3.1 nM | AUC(0-t) at 24 h [35]: 3320 ng·h/mL | Kd [36]: 12 nM | Selectivity ratio [37]: 21 | inhibition (MV4-11 [38]): Dose-dependent effect | inhibition (HepG2 [39]): Dose-dependent effect | Kd [40]: 26 nM | Cmax [41]: 5420 ng/mL | Ki [42]: 95.5 nM | Activity (MV4-11 [43]): Dose-dependent effect | Kd [44]: 64 nM | IC50 (MV4-11 [45]): 27 nM | inhibition in vivo at 100 mg/kg (MV4-11 [46]): 58% | IC50 (MM1.S): 16.7 nM
